From US12312324B2, “Fluorine-containing substituted benzothiophene compound, and pharmaceutical composition and application thereof” (Shanghai Institute of Materia Medica, Chinese Academy of …, priority 2019, dated 2025)
Entries after “also recorded” stand apart in the source; their conditions may differ.

What was measured:
[1] = molecular target: human-derived interferon gene stimulating protein (Homo sapiens, UniProt Q86WV6, G230A/H232R/R293Q/R71H); assay: THP1-Blue-ISG reporter cell screening for activation of interferon gene stimulating protein and promotion of IFN-β expression; conditions: 10 μM, THP1-Blue-ISG cells; for Fold change (ratio relative to the control experiment), First experiment / Fold change (ratio relative to the control experiment), Second experiment / Fold change (ratio relative to the control experiment), Average value: 24 hours, OD650; for Fold change (ratio relative to the control experiment), Average value: average of two experiments
[2] = Pharmacokinetic properties in rats; type: in vivo
[3] = rat, plasma, Intravenous (1 mg/kg)

Chain of human-derived interferon gene stimulating protein (Q86WV6 whole entry R71H/G230A/H232R/R293Q): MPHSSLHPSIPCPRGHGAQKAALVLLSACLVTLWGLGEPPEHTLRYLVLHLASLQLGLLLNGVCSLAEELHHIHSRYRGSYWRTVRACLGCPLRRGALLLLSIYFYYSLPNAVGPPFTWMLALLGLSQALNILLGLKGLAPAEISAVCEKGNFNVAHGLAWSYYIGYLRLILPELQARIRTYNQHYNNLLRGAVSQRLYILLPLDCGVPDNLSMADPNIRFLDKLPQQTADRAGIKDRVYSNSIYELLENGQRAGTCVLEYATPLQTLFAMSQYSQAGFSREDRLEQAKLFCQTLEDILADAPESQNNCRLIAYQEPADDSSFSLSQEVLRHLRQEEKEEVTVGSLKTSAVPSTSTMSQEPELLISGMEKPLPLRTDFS

Structure (SMILES)	Fold change (ratio relative to the control experiment), First experiment [1]	Fold change (ratio relative to the control experiment), Second experiment [1]	Fold change (ratio relative to the control experiment), Average value [1]	Judgement [1]	other results
COC1=C(OC)CC=c2cc(C(F)CCCC(=O)N(O)C(C)C)sc2=C1 (stereo not shown) [Compound S24]	15.53	24.54	20.04	effective (when the Fold change≥2, it is effective)	–
COc1cc2sc(C(F)(F)CCC(=O)O)cc2c(F)c1OC [Compound S19]	25.73	31.81	28.77	effective (when the Fold change≥2, it is effective)	–
COc1cc2cc(C(F)(F)CCC(=O)N(O)C(C)C)sc2cc1OC [Compound S10]	25.41	34.36	29.89	effective (when the Fold change≥2, it is effective)	–
COc1cc2cc(C(F)(F)CCC(=O)N(O)C3CC3)sc2cc1OC [Compound S15]	26.23	35.12	30.68	effective (when the Fold change≥2, it is effective)	–
C=Cc1cc2cc(C(F)(F)CCC(=O)O)sc2cc1OC [Compound S29]	25.26	34.05	29.66	effective (when the Fold change≥2, it is effective)	–
O=C(O)CCC(F)(F)c1cc2cc3c(cc2s1)OCO3 [Compound S26]	16.24	25.03	20.62	effective (when the Fold change≥2, it is effective)	–
COc1cc2sc(C(F)(F)CCC(=O)O)cc2cc1Br [Compound S28]	23.75	33.73	28.74	effective (when the Fold change≥2, it is effective)	–
COc1cc2cc(C(F)(F)CCC(=O)OC(C)C)sc2cc1OC [Compound S3]	24.31	33.69	29.00	effective (when the Fold change≥2, it is effective)	–
COc1cc2cc(C(F)(F)CCC(=O)N(O)C(F)F)sc2cc1OC [Compound S7]	23.95	29.94	26.95	effective (when the Fold change≥2, it is effective)	–
CO/C1=C(\OC)C/C(F)=c2/cc(C(F)(F)CCC(=O)N(O)C(C)C)s/c2=C/C1 [Compound S21]	27.51	32.63	30.07	effective (when the Fold change≥2, it is effective)	–

Continued, in another order:

Fold change (ratio relative to the control experiment), First experiment [1]	Fold change (ratio relative to the control experiment), Second experiment [1]	Fold change (ratio relative to the control experiment), Average value [1]	Structure (SMILES)	Judgement [1]	other results
22.38	31.54	26.96	COc1cc2cc(C(F)(F)CCC(=O)N(O)C(F)(F)c3ccccc3)sc2cc1OC [Compound S12]	effective (when the Fold change≥2, it is effective)	–
17.62	28.34	22.98	COc1cc2cc(C(F)(F)CCC(=O)NOc3ccccc3)sc2cc1OC [Compound S18]	effective (when the Fold change≥2, it is effective)	–
15.82	26.22	21.02	COc1cc2cc(C(F)(F)CCC(=O)N(C)O)sc2cc1OC [Compound S6]	effective (when the Fold change≥2, it is effective)	–
23.95	25.94	24.95	COc1cc2cc(C(F)(F)CCC(=O)O)sc2cc1OC [Compound S2]	effective (when the Fold change≥2, it is effective)	plasma exposure (AUC) of intravenous injection relative to that of 1a ([2]; intravenous injection, versus compound 1a): about 4.4 times; pharmacokinetic properties (T1/2, Cmax, AUC, MRT) compared with compound 1a (in words) ([2]; oral or intravenous, versus compound 1a): significantly superior; also recorded: significantly better; AUC [2, 3]: 7180 ng·h/mL; MRT [2, 3]: 51.2 min; clearance [2, 3]: 2.33 mL/min/kg; half-life [2, 3]: 40.1 min; AUC ([2]; rat, plasma, Oral (3 mg/kg)): 5820 ng·h/mL; Cmax ([2]; rat, plasma, Oral (3 mg/kg)): 6910 ng/mL; MRT ([2]; rat, plasma, Oral (3 mg/kg)): 69 min; half-life ([2]; rat, plasma, Oral (3 mg/kg)): 44.4 min
20.44	30.93	25.69	COc1cc2cc(C(F)(F)CCC(=O)N(O)Cc3ccccc3)sc2cc1OC [Compound S11]	effective (when the Fold change≥2, it is effective)	–
